Read-outs that look alike come from different tables or passages of the source.
B1: TIRC7 protein: in vitro translated T-cell immune response cDNA 7 (TIRC7) protein (protein, UniProt Q13488 1-830, looked up)
V-type proton ATPase 116 kDa …: MGSMFRSEEVALVQLFLPTAAAYTCVSRLGELGLVEFRDLNASVSAFQRRFVVDVRRCEELEKTFTFLQEEVRRAGLVLPPPKGRLPAPPPRDLLRIQEETERLAQELRDVRGNQQALRAQLHQLQLHAAVLRQGHEPQLAAAHTDGASERTPLLQAPGGPHQDLRVNFVAGAVEPHKAPALERLLWRACRGFLIASFRELEQPLEHPVTGEPATWMTFLISYWGEQIGQKIRKITDCFHCHVFPFLQQEEARLGALQQLQQQSQELQEVLGETERFLSQVLGRVLQLLPPGQVQVHKMKAVYLALNQCSVSTTHKCLIAEAWCSVRDLPALQEALRDSSMEEGVSAVAHRIPCRDMPPTLIRTNRFTASFQGIVDAYGVGRYQEVNPAPYTIITFPFLFAVMFGDVGHGLLMFLFALAMVLAENRPAVKAAQNEIWQTFFRGRYLLLLMGLFSIYTGFIYNECFSRATSIFPSGWSVAAMANQSGWSDAFLAQHTMLTLDPNVTGVFLGPYPFGIDPIWSLAANHLSFLNSFKMKMSVILGVVHMAFGVVLGVFNHVHFGQRHRLLLETLPELTFLLGLFGYLVFLVIYKWLCVWAARAASAPSILIHFINMFLFSHSPSNRLLYPRQEVVQATLVVLALAMVPILLLGTPLHLLHRHRRRLRRRPADRQEENKAGLLDLPDASVNGWSSDEEKAGGLDDEEEAELVPSEVLMHQAIHTIEFCLGCVSNTASYLRLWALSLAHAQLSEVLWAMVMRIGLGLGREVGVAAVVLVPIFAAFAVMTVAILLVMEGLSAFLHALRLHWVEFQNKFYSGTGYKLSPFTFAATDD
modifications: in vitro translated
notes: in vitro translated T-cell immune response cDNA 7 (TIRC7) protein

Columns and labels:
PHA-stimulated PBMC = experiment: Radioactive proliferation assay, incorporation of 3H-thymidine, TIRC7-peptides; type: cell-based, human; conditions: PHA stimulation, 48 h, 3H-thymidine incorporation
Experimental: PBMC of healthy donors were isolated according to the Ficoll-Paque density centrifugation protocol. Samples of 50000 PBMC's/well were stimulated with PHA (1 μg/ml) and incubated for 48 h at 5% CO2, 37° C. in presence of TIRC7-peptides (see FIG. 4(B)) and controls (BSA) in a total volume of […]. Samples were run in triplicates on 96 well-microtiter-plates (MTP's). After 48 h 0.5 μCi ^3H-thymidine per well were added and the cells were reincubated for additional 18 h. Cells were harvested and lysed using a cell harvester and collected on nitrocellulose-filter-MTP's. Plates were dried at room temperature for 3 h. To enhance the radioactive signal produced by the samples a scintillation fluid was added and counts per minute were measured with a beta counter.

activated T-cells = conditions: alloactivation in mixed lymphocyte culture (MLR) or mitogens, Utku et al., Immunity 1998, cited from earlier work

Row | Molecule | inhibition of proliferation of PHA-stimulated PBMC (PHA-stimulated PBMC; FIG. 5) | inhibition of proliferation of PHA-stimulated PBMC (PHA-stimulated PBMC; FIG. 5, listed as SEQ ID NO: 11) | suppression of proliferation of T-cells (activated T-cells) | suppression of proliferation of T-cells (activated T-cells; listed as protein TIRC7)
1 | P4: TIRC7-derived peptide (FIG. 4(B)), the one of 6 without significant inhibition of proliferation (VEFQNKFYSGTGYK; listed as Homo sapiens) | except peptide P4 all TIRC7-peptides inhibited proliferation | weaker if any activity | – | –
2 | B1 | – | – | efficiently suppress in a dose dependent manner | signifincantly suppressed

Source: patent US20050048067A1, “Peptides capable of modulating immune response” (priority 2001, published 2005)
